Where two headings read alike, the source gives them in different places.
Key:
[1] = molecular target: T1, human recombinant HDAC1 (Homo sapiens, UniProt Q13547); assay: HDAC1 enzyme activity inhibition (HDAC Fluorimetric Drug Discovery Kit); type: biochemical; details: read-out: HDAC1
T1 construct: purchased Enzo Life Science, Inc. BML-SE456
Outline: (§1)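 Fluorimetric deacetylase read-out. 5-fold compound dilutions; […] enzyme, 10 μM substrate; 30° C, 60 min; developer 30 min.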

[2] = molecular target: T2, human recombinant HDAC6 (Homo sapiens, UniProt Q9UBN7); assay: HDAC6 enzyme activity inhibition (HDAC Fluorimetric Drug Discovery Kit); type: biochemical
T2 construct: purchased Calbiochem Inc. 382180
T2 sequence (Q9UBN7 1-1215): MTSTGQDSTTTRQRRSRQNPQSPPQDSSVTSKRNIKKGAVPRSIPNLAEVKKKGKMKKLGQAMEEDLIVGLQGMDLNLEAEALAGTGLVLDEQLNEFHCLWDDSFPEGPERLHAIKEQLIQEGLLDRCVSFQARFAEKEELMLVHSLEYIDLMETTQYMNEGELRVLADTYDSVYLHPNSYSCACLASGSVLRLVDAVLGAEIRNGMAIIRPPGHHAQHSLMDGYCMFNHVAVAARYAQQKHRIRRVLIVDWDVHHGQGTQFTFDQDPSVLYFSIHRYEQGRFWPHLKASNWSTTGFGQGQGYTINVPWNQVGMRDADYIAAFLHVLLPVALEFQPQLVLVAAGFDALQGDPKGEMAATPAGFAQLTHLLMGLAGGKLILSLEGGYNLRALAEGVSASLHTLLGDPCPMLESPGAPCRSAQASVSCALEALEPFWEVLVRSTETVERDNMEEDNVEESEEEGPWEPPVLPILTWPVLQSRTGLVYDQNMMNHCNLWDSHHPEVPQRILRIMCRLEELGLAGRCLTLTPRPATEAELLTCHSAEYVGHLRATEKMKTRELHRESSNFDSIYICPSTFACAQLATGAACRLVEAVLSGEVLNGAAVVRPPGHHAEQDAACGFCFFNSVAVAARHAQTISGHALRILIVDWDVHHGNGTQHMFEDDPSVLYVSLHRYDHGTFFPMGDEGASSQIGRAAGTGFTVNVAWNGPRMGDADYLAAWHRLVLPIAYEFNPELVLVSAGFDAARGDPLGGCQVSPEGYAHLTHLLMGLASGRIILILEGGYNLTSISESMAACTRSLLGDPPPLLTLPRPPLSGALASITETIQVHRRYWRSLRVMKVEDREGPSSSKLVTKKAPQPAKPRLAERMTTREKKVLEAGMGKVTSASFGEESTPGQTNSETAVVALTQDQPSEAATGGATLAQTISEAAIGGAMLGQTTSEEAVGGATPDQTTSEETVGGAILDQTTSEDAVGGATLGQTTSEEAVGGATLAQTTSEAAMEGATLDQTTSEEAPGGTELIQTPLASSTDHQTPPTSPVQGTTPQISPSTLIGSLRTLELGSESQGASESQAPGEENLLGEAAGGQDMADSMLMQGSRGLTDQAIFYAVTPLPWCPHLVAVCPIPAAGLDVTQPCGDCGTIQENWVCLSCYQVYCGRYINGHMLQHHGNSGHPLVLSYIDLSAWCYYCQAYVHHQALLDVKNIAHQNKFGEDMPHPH
Outline: as §1

[3] = human recombinant HDAC1, Fluor de Lys substrate, 30° C. 60 minutes
[4] = human recombinant HDAC6, same protocol as HDAC1
[5] = human recombinant HDAC1, IC50 calculated with GraphPad Prism
[6] = human recombinant HDAC6, IC50 calculated with GraphPad Prism

T1 sequence (Q13547 whole entry): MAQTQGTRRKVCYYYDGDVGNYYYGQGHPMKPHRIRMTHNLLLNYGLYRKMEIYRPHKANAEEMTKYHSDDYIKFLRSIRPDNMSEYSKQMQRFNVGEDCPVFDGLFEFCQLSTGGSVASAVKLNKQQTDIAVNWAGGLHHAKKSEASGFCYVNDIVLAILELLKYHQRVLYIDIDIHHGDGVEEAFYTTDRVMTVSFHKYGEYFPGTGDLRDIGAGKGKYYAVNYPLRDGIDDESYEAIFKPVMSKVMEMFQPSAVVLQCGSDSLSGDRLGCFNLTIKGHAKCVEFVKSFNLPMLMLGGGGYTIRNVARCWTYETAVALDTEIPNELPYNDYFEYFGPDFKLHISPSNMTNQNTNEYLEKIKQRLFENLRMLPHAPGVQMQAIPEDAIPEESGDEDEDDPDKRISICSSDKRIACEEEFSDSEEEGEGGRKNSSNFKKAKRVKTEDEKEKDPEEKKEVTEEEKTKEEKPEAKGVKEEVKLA

| SMILES | IC50 [1, 3] [nM] | HDAC6 selectivity (fold) ([2]; HDAC6 over HDAC1) | IC50 [2, 4] [nM] | IC50 [1, 5] [nM] | HDAC6 selectivity (fold) ([2]; HDAC1 IC50 / HDAC6 IC50) | IC50 [2, 6] [nM] |
| --- | --- | --- | --- | --- | --- | --- |
| Fc1cc(-c2nnc(C(F)F)o2)cnc1Cn1cc(-c2ccccc2CN2CCC2)nn1 [Compound 18822, 2-(6-((4-(2-(azetidin-1-ylmethyl)phenyl)-1H-1,2,3-triazol-1-yl)methyl)-5-fluoropyridin-3-yl)-5-(difluoromethyl)-1,3,4-oxadiazole] | > 50000 | 98 | 505 | – | – | – |
| FC(F)c1nnc(-c2ccc(Cn3cc(-c4cccc(C5CN(C6CCC6)C5)c4)nn3)cc2)o1 [Compound 4510, 2-(4-((4-(3-(1-cyclobutylazetidin-3-yl)phenyl)-1H-1,2,3-triazol-1-yl)methyl)phenyl)-5-(difluoromethyl)-1,3,4-oxadiazole] | > 50000 | 2173 | 23 | – | – | – |
| CC(C)N1CCN(Cc2cccc(-c3cn(Cc4ccc(-c5nnc(C(F)F)o5)cc4)nn3)c2)CC1 [Compound 4416, 2-(difluoromethyl)-5-(4-((4-(3-((4-isopropylpiperazin-1-yl)methyl)phenyl)-1H-1,2,3-triazol-1-yl)methyl)phenyl)-1,3,4-oxadiazole] | – | – | – | > 50000 | 427 | 112 |
| Fc1cc(-c2nnc(C(F)F)o2)cnc1Cn1cc(-c2cc(Cl)cc(CN3CCC3)c2)nn1 [Compound 19091, 2-(6-((4-(3(-azetidin-1-ylmethyl)-5-chlorophenyl)-1H-1,2,3-triazol-1-yl)methyl)-5-fluoropyridin-3-yl)-5-(difluoromethyl)-1,3,4-oxadiazole] | > 50000 | 435 | 115 | – | – | – |
| FC(F)c1nnc(-c2ccc(Cn3cc(-c4ccc(CNC5COC5)cc4)nn3)cc2)o1 [Compound 4556, N-(4-(1-(4-(5-(difluoromethyl)-1,3,4-oxadiazol-2-yl)benzyl)-1H-1,2,3-triazol-4-yl)benzyl)oxetan-3-amine] | > 50000 | 682 | 73.3 | – | – | – |
| CN(C)Cc1cc(Cl)cc(-c2cn(Cc3ncc(-c4nnc(C(F)F)o4)cc3F)nn2)c1 [Compound 19090, 1-(3-chloro-5-(1-((5-(5-(difluoromethyl)-1,3,4-oxadiazol-2-yl)-3-fluoropyridin-2-yl)methyl)-1H-1,2,3-triazol-4-yl)phenyl)-N,N-dimethylmethanamine] | > 50000 | 728 | 68.6 | – | – | – |
| O=C(O)c1ccc(-c2cn(Cc3ccc(-c4nnc(C(F)F)o4)cc3)nn2)cc1 [Compound 3731, 4-(1-(4-(5-(difluoromethyl)-1,3,4-oxadiazol-2-yl)benzyl)-1H-1,2,3-triazol-4-yl)benzoic acid] | – | – | – | > 50000 | 29 | 1720 |
| Fc1cc(-c2nnc(C(F)F)o2)cnc1Cn1cc(-c2cccc(C3CCN(C4CN(C5CCC5)C4)CC3)c2)nn1 [Compound 18878] | > 50000 | 429 | 116 | – | – | – |
| O=C(CO)N1CCC(c2cn(Cc3ccc(-c4nnc(C(F)F)o4)cn3)nn2)CC1 [Compound 3813, 1-(4-(1-((5-(5-(difluoromethyl)-1,3,4-oxadiazol-2-yl)pyridin-2-yl)methyl)-1H-1,2,3-triazol-4-yl)piperidin-1-yl)-2-hydroxyethan-1-one] | – | – | – | > 50000 | 166 | 300 |
| OC1(c2cn(Cc3ccc(-c4nnc(C(F)F)o4)cn3)nn2)COC1 [Compound 4276, 3-(1-((5-(5-(difluoromethyl)-1,3,4-oxadiazol-2-yl)pyridin-2-yl)methyl)-1H-1,2,3-triazol-4-yl)oxetan-3-ol] | – | – | – | > 50000 | 143 | 349 |
| C[C@@H]1CN(c2cccc(-c3cn(Cc4ccc(-c5nnc(C(F)F)o5)cc4)nn3)c2)C[C@H](C)N1 [Compound 4440, 2-(difluoromethyl)-5-(4-((4-(3-((3R,5S)-3,5-dimethylpiperazin-1-yl)phenyl)-1H-1,2,3-triazol-1-yl)methyl)phenyl)-1,3,4-oxadiazole] | – | – | – | > 50000 | 1655 | 30.2 |
| CN1C[C@@H]2C[C@H]1CN2c1cc(-c2cn(Cc3ccc(-c4nnc(C(F)F)o4)cc3F)nn2)ccc1F [Compound 4430, 2-(difluoromethyl)-5-(3-fluoro-4-((4-(4-fluoro-3-((1S,4S)-5-methyl-2,5-diazabicyclo[2.2.1]heptan-2-yl)phenyl)-1H-1,2,3-triazol-1-yl)methyl)phenyl)-1,3,4-oxadiazole] | – | – | – | > 50000 | 351 | 142 |
| CCN1CCN(c2cc(-c3cn(Cc4ccc(-c5nnc(C(F)F)o5)cc4)nn3)ccc2F)CC1 [Compound 4420, 2-(difluoromethyl)-5-(4-((4-(3-(4-ethylpiperazin-1-yl)-4-fluorophenyl)-1H-1,2,3-triazol-1-yl)methyl)phenyl)-1,3,4-oxadiazole] | – | – | – | > 50000 | 287 | 174 |
| FC(F)c1nnc(-c2ccc(Cc3nnc(-c4ccccc4)o3)cc2)o1 [Compound 3980, 2-(difluoromethyl)-5-(4-((5-phenyl-1,3,4-oxadiazol-2-yl)methyl)phenyl)-1,3,4-oxadiazole] | – | – | – | > 50000 | 272 | 184 |

Now from value to compound:

| IC50 [1, 3] [nM] | HDAC6 selectivity (fold) ([2]; HDAC6 over HDAC1) | IC50 [2, 4] [nM] | IC50 [1, 5] [nM] | HDAC6 selectivity (fold) ([2]; HDAC1 IC50 / HDAC6 IC50) | IC50 [2, 6] [nM] | SMILES |
| --- | --- | --- | --- | --- | --- | --- |
| – | – | – | > 50000 | 93 | 536 | CC(=O)N1CC(c2cn(Cc3ccc(-c4nnc(C(F)F)o4)cn3)nn2)C1 [Compound 3956, 1-(3-(1-((5-(5-(difluoromethyl)-1,3,4-oxadiazol-2-yl)pyridin-2-yl)methyl)-1H-1,2,3-triazol-4-yl)azetidin-1-yl)ethan-1-one] |
| > 50000 | 1184 | 42.2 | – | – | – | Fc1cc(-c2nnc(C(F)F)o2)ccc1Cn1cc(-c2ccc(CN3CCCC3)nc2)nn1 [Compound 18175, 2-(difluoromethyl)-5-(3-fluoro-4-((4-(6-(pyrrolidin-1-ylmethyl)pyridin-3-yl)-1H-1,2,3-triazol-1-yl)methyl)phenyl)-1,3,4-oxadiazole] |
| – | – | – | > 50000 | 2439 | 20.5 | CN(C)c1cccc(-c2cn(Cc3ccc(-c4nnc(C(F)F)o4)cn3)nn2)c1 [Compound 3824, 3-(1-((5-(5-(difluoromethyl)-1,3,4-oxadiazol-2-yl)pyridin-2-yl)methyl)-1H-1,2,3-triazol-4-yl)-N,N-dimethylaniline] |
| > 50000 | 2057 | 24.3 | – | – | – | FC(F)c1nnc(-c2ccc(Cn3cc(-c4ccnc(N5CCN(C6COC6)CC5)c4)nn3)nc2)o1 [Compound 4594, 2-(difluoromethyl)-5-(6-((4-(2-(4-(oxetan-3-yl)piperazin-1-yl)pyridin-4-yl)-1H-1,2,3-triazol-1-yl)methyl)pyridin-3-yl)-1,3,4-oxadiazole] |
| – | – | – | > 50000 | 1046 | 47.8 | O=C(Nc1cccc(-c2cn(Cc3ccc(-c4nnc(C(F)F)o4)cn3)nn2)c1)C1CNC1 [Compound 4463, N-(3-(1-((5-(5-(difluoromethyl)-1,3,4-oxadiazol-2-yl)pyridin-2-yl)methyl)-1H-1,2,3-triazol-4-yl)phenyl)azetidin-3-carboxamide] |
| – | – | – | > 50000 | 486 | 103 | Cc1cc2ccc(-c3cn(Cc4ccc(-c5nnc(C(F)F)o5)cc4)nn3)cc2[nH]1 [Compound 4288] |
| – | – | – | > 50000 | 773 | 64.6 | FC(F)c1nnc(-c2ccc(Cn3cc(C4=CCCCC4)nn3)nc2)o1 [Compound 3879, 2-(6-((4-(cyclohex-1-ene-1-yl)-1H-1,2,3-triazol-1-yl)methyl)pyridin-3-yl)-5-(difluoromethyl)-1,3,4-oxadiazole] |
